From ChEMBL document CHEMBL1135763, “Discovery of aminothiazole inhibitors of cyclin-dependent kinase 2: synthesis, X-ray crystallographic analysis, and biological activities” (J Med Chem, 2002) come the findings set out here.

Where only a bound is given, the exact number is not on record here.

As a reminder, the IC50 is the concentration that inhibits the measured activity by half. Read a low IC50 as greater potency in that assay.

The target in assay [1] is Cyclin-dependent kinase 2/cyclin E (Homo sapiens, UniProt P24941). In words: Inhibitory activity against baculovirus expressed Cyclin dependent kinase 2-cyclinE. Format: protein-complex assay.
Assay [2] has as its target Cyclin-dependent kinase 1/cyclin B (Homo sapiens, UniProt P06493). The experiment in a line: Inhibitory activity against baculovirus expressed Cyclin dependent kinase 1-cyclinB. It is filed as protein-complex assay.
Assay [3] concerns the target Cyclin-dependent kinase 4/cyclin D1 (Homo sapiens, UniProt P11802). In words: Inhibitory activity against baculovirus expressed Cyclin dependent kinase 4-cyclinD1. Format: protein-complex assay.
For the next assay, the system named is A2780. The experiment in a line: cells. The settings on record: Homo sapiens.

Sequence of Cyclin-dependent kinase 4/cyclin D1 (P11802 whole entry): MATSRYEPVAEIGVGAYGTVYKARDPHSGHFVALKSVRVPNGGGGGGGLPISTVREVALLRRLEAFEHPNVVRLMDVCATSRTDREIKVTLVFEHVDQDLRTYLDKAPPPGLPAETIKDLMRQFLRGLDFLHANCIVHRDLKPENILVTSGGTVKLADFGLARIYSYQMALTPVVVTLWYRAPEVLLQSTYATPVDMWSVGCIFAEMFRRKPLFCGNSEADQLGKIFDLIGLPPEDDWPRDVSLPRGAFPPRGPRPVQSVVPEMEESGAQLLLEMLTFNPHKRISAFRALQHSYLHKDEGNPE
Sequence of Cyclin-dependent kinase 4/cyclin D1 (P24385 whole entry, further chain): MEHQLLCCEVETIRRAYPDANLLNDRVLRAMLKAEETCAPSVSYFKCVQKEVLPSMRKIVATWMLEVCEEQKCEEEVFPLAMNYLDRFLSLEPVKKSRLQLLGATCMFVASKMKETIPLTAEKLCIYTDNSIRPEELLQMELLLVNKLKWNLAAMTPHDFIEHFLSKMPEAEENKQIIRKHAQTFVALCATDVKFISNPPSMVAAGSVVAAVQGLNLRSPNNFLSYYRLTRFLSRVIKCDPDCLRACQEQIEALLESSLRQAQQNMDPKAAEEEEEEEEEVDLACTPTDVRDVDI
Description for A2780: Cytotoxic activity against A2780 human ovarian carcinoma cell line

Take `CC(=O)Nc1ncc(SCC(=O)OCc2ccccc2)s1`: the concentration for half-maximal inhibition (IC50) in assay [1] came out at 340 nM; in assay [2] it was 2380 nM; in assay [3], 19100 nM. In the case of `CC(C)(C)c1ncc(CSc2cnc(NC(=O)Cc3ccccc3)s2)o1`, half-maximal inhibition in assay [1] (IC50) required 3 nM. Still for that read-out and setting: in the case of `CC(=O)Nc1ncc(SCc2ccncc2)s1` it was above 1000 nM; in that of `COCCSc1cnc(NC(C)=O)s1`, above 1000 nM.

As for `CCC(CC)CSc1cnc(NC(C)=O)s1`, the IC50 in assay [1] is above 1000 nM. With `CC(C)(C)c1cnc(CSc2cnc(NC(=O)OCc3ccccc3)s2)o1`, the values for the 50% inhibitory concentration (IC50) (in the assay with A2780; in assay [1]) were 1040 nM and 150 nM, respectively. For `CC(C)(C)c1cnc(CSc2cnc(NC(=O)Nc3ccc(F)cc3)s2)o1`, the IC50 is 900 nM in the assay on A2780, 11 nM in assay [1], 19 nM in assay [2] and 900 nM in assay [3]. For `CC(C)OC(=O)Nc1ncc(SCc2ncc(C(C)(C)C)o2)s1`, the IC50 in the assay with A2780 was found to be 640 nM; in assay [1], 25 nM; in assay [2], 18 nM; in assay [3] it was 2990 nM. `COC(=O)c1ccc(CSc2cnc(NC(C)=O)s2)o1`: in assay [1], the IC50 is above 1000 nM. In assay [1], `CC(=O)Nc1ncc(SCc2nc(C)c(C)o2)s1` yielded an IC50 of 360 nM. Turning to `CC(=O)Nc1nc(CSc2cnc(NC(C)=O)s2)cs1`, the half-inhibitory concentration (IC50) in assay [1] is above 1000 nM. Same read-out and setting: for `CC(=O)Nc1ncc(SCCc2cccc3ccccc23)s1` the value was above 1000 nM. For `CC(=O)Nc1ncc(SCc2ncc(C(C)C)o2)s1`, the IC50 was 200 nM with A2780, 6 nM in assay [1], 60 nM in assay [2] and 1070 nM in assay [3]. Turning to `CCNC(=O)Nc1ncc(SCc2ncc(C(C)(C)C)o2)s1`, the 50% inhibitory concentration (IC50) stood at 120 nM in the assay on A2780 and 50 nM in assay [1].

As to `CC(=O)Nc1ncc(SCC(=O)O)s1`, in assay [1], the IC50 was above 25000 nM. Consider `CC(=O)Nc1nnc(SCC(=O)OC(C)(C)C)s1`, for which, in assay [1], the half-maximal inhibitory concentration (IC50) is above 25000 nM. Regarding `CC(=O)Nc1ncc(SCc2ncc(C(C)(C)C)o2)s1`, the IC50 in assay [1] amounted to 5 nM; in assay [2] it was 40 nM; in assay [3], 690 nM. Take `CC(=O)Nc1cnc(SCc2ncc(C(C)(C)C)o2)s1`: in assay [1], the half-inhibitory concentration (IC50) is above 25000 nM. In the case of `CC(C)(C)c1cnc(CSc2cnc(NC(=O)Nc3c(F)cccc3F)s2)o1`, the IC50 in the assay on A2780 stood at 240 nM; in assay [1], 2 nM; in assay [2], 10 nM; in assay [3], 390 nM. `COC(=O)C(Sc1cnc(NC(C)=O)s1)c1ccccc1` (stereo not drawn) registered an IC50 in assay [1] above 1000 nM. Consider `CC(C)(C)c1cnc(CSc2cnc(NC(=O)Nc3c(Cl)cccc3Cl)s2)o1`, for which the IC50 in the assay with A2780 is 1500 nM; in assay [1], 3 nM; in assay [2] it was 30 nM; in assay [3], above 1000 nM. Molecule `COC(=O)C(Sc1cnc(NC(C)=O)s1)C1CCCCC1` (stereo not drawn) gave a half-maximal inhibitory concentration (IC50) in assay [1] above 1000 nM. Consider `CCc1cnc(CSc2cnc(NC(=O)C(C)C)s2)o1`, for which the IC50 in the assay with A2780 was determined as 200 nM; in assay [1] it was 5 nM; in assay [2], 60 nM; in assay [3], 1070 nM. For the molecule `CC(=O)Nc1ncc(SCC(=O)CC(C)(C)C)s1`, in assay [1], the midpoint of inhibition, the IC50, lay at 1840 nM.

For the molecule `C[C@@H](C(=O)Nc1ncc(SCc2ncc(C(C)(C)C)o2)s1)c1ccccc1`, the figures for the IC50 (in the assay on A2780; in assay [1]; in assay [3]) were 900 nM, 6 nM and 3130 nM, respectively. For the molecule `CC(C)(C)c1cnc(CSc2cnc(NC(=O)c3ccccc3)s2)o1`, the IC50 in assay [3] amounted to 960 nM. For `CC(C)(C)c1cnc(CSc2cnc(NS(=O)(=O)c3ccccc3)s2)o1`, the figures for the IC50 (in the assay on A2780; in assay [1]) were 2860 nM and 4280 nM, respectively. In assay [1], `CC(=O)Nc1ncc(SCC2CCCCC2)s1` displayed an IC50 above 1000 nM.

The molecule `CC(=O)Nc1ncc(SCC(C)C)s1` yielded an IC50 in assay [1] above 1000 nM. Turning to `CC(=O)Nc1ncc(SCc2ncc(C)o2)s1`, the IC50 is 90 nM in assay [1] and 5160 nM in assay [3].

As for `C[C@H](C(=O)Nc1ncc(SCc2ncc(C(C)(C)C)o2)s1)c1ccccc1`, the concentration for half-maximal inhibition (IC50) in assay [1] was found to be 60 nM. Consider `CC(=O)Nc1ncc(SCc2ncc(CC3CCCCC3)o2)s1`, for which the IC50 with A2780 was 1540 nM; in assay [1], 4 nM; in assay [2], 30 nM; in assay [3], 640 nM.

`CC(C)(C)C(=O)Nc1ncc(SCc2ncc(C(C)(C)C)o2)s1`: the IC50 worked out at 250 nM in the assay on A2780, 17 nM in assay [1], 90 nM in assay [2] and 3480 nM in assay [3]. As for `CC(=O)Nc1ncc(SCC(O)CC(C)(C)C)s1` (stereo not drawn), the IC50 in assay [1] was 2810 nM. `CC(=O)Nc1ncc(SCCc2ccccc2)s1`: in assay [1], the IC50 is 12600 nM. Still for that read-out and setting: for `CCc1coc(CSc2cnc(NC(C)=O)s2)n1` the value was 200 nM. Turning to `CC(=O)Nc1ncc(SCC(=O)OC(C)(C)C)s1`, the IC50 in assay [1] stood at 50 nM; in assay [2], 440 nM; in assay [3] it was 5380 nM. Regarding `CC(=O)Nc1ncc(SCc2ccccn2)s1`, the IC50 in assay [1] was above 1000 nM. For `CC(=O)Nc1ncc(SCc2ncc(-c3ccccc3)o2)s1`, the IC50 in assay [1] is 350 nM; in assay [3], 4510 nM. For the molecule `CC(=O)Nc1ncc(SCc2cccnc2)s1`, the IC50 in assay [1] amounted to 680 nM.

Turning to `CC(=O)Nc1ncc(SCCOC(C)(C)C)s1`, the IC50 in assay [1] is 1740 nM. On to `CC(C)C(=O)Nc1ncc([S+]([O-])Cc2ncc(C(C)(C)C)o2)s1` (stereo not drawn), for which the figures for the 50% inhibitory concentration (IC50) in assay [1], in assay [2] and in assay [3] were 140 nM, 140 nM and above 25000 nM, respectively. For the molecule `CCOC(=O)CCCCCSc1cnc(NC(C)=O)s1`, in assay [1], the half-maximal inhibitory concentration (IC50) was above 1000 nM. `CC(C)C(=O)Nc1ncc(S(=O)(=O)Cc2ncc(C(C)(C)C)o2)s1`: the IC50 in assay [1] is 250 nM; in assay [2], above 250 nM. As to `CC(C)C(=O)Nc1ncc(SCc2ncc(C(C)(C)C)o2)s1`, the IC50 came out at 50 nM with A2780, 5 nM in assay [1], 30 nM in assay [2] and 900 nM in assay [3].

`CC(=O)Nc1ncc(SCc2nnsc2Cl)s1` registered an IC50 in assay [1] above 1000 nM. In turn, `CC(=O)Nc1ncc(SCc2c(C)noc2C)s1` displayed a half-maximal inhibitory concentration (IC50) in assay [1] above 1000 nM.

Consider `CC(C)C(=O)N(C)c1ncc(SCc2ncc(C(C)(C)C)o2)s1`, for which the 50% inhibitory concentration (IC50) in assay [1] is above 25000 nM.

Consider `CCN(C)C(=O)CSc1cnc(NC(C)=O)s1`, for which the IC50 in assay [1] was above 25000 nM. The same measure, in the same setting: in the case of `CC(=O)Nc1ncc(SCCOc2ccccc2)s1` it was above 1000 nM.
